# According to PMC8826350, “Structural feature-driven pattern analysis for multitarget modulator landscapes” (Bioinformatics, 2021):
# Columns and labels:
# [1] = biological target: T1, ABCG2 (Homo sapiens, UniProt Q9UNQ0); test: Pheophorbide A assay (flow cytometry), ABCG2-overexpressing MDCK II BCRP cells; assay type: cell-based; parameters: host or cells: MDCK II; settings: curve top constrained to reference 8, read-out: IC50±SEM ABCG2 Pheophorbide A
# T1 sequence (Q9UNQ0 1-655): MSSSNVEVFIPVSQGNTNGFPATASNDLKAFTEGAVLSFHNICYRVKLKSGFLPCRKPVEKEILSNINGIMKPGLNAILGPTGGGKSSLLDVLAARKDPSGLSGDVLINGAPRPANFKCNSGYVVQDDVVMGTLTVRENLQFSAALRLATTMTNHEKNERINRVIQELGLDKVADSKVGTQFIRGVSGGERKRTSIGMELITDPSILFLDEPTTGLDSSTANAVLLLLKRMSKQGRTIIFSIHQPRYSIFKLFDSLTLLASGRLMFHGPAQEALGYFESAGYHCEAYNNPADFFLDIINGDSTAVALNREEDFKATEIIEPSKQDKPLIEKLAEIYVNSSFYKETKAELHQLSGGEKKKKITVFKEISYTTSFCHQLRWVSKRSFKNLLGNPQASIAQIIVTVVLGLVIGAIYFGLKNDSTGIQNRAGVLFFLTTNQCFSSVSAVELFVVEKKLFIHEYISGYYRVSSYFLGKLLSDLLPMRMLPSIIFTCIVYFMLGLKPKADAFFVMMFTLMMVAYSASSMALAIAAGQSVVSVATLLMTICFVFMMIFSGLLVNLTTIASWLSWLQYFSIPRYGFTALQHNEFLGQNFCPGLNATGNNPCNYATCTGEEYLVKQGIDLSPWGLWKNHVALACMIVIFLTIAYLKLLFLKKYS
# [2] = biological target: T2, ABCB1 (Homo sapiens, UniProt P08183); test: Calcein AM assay (plate reader), ABCB1-overexpressing A2780/ADR cells
# T2 sequence (P08183 whole entry): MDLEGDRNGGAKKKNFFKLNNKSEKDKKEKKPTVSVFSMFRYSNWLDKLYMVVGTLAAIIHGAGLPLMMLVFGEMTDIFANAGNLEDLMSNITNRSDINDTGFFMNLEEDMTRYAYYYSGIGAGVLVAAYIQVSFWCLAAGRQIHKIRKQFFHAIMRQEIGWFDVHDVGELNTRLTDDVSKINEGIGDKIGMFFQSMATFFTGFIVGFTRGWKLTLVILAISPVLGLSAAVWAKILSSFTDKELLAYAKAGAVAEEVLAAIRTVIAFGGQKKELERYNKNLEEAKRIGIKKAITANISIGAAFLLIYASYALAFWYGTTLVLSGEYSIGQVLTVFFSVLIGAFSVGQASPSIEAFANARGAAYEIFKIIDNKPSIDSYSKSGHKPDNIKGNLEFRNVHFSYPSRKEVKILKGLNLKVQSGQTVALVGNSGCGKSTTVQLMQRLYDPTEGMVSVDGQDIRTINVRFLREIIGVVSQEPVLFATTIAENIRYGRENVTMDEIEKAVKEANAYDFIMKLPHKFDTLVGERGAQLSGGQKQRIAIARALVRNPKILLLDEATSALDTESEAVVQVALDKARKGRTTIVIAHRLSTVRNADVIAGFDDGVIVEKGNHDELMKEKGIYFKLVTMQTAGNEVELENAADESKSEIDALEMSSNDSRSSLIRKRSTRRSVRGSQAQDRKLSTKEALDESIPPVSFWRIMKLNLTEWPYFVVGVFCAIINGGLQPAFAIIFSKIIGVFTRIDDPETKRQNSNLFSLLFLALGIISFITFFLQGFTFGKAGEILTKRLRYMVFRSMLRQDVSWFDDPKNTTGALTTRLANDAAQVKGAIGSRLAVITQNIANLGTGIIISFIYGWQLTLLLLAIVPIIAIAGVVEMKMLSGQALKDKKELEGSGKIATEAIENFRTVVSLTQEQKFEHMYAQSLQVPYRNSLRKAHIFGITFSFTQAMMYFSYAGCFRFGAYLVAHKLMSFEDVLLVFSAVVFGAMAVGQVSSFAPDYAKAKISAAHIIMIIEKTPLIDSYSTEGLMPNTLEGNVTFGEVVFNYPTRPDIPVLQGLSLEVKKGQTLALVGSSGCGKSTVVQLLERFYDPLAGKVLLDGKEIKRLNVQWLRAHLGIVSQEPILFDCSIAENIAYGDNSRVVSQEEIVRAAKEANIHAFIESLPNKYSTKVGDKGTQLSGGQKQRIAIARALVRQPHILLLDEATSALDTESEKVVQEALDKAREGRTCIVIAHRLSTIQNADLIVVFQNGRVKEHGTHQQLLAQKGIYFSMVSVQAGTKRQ
# [3] = biological target: T3, ABCC1 (Homo sapiens, UniProt P33527); test: Calcein AM assay (plate reader), ABCC1-overexpressing H69AR cells; settings: for IC50±SEM ABCC1 Calcein AM: H69AR cells, curve top constrained to reference 7; for mode of modulation of ABCC1 (in words): initial screening at 10 µM, calcein AM assay
# T3 sequence (P33527 whole entry): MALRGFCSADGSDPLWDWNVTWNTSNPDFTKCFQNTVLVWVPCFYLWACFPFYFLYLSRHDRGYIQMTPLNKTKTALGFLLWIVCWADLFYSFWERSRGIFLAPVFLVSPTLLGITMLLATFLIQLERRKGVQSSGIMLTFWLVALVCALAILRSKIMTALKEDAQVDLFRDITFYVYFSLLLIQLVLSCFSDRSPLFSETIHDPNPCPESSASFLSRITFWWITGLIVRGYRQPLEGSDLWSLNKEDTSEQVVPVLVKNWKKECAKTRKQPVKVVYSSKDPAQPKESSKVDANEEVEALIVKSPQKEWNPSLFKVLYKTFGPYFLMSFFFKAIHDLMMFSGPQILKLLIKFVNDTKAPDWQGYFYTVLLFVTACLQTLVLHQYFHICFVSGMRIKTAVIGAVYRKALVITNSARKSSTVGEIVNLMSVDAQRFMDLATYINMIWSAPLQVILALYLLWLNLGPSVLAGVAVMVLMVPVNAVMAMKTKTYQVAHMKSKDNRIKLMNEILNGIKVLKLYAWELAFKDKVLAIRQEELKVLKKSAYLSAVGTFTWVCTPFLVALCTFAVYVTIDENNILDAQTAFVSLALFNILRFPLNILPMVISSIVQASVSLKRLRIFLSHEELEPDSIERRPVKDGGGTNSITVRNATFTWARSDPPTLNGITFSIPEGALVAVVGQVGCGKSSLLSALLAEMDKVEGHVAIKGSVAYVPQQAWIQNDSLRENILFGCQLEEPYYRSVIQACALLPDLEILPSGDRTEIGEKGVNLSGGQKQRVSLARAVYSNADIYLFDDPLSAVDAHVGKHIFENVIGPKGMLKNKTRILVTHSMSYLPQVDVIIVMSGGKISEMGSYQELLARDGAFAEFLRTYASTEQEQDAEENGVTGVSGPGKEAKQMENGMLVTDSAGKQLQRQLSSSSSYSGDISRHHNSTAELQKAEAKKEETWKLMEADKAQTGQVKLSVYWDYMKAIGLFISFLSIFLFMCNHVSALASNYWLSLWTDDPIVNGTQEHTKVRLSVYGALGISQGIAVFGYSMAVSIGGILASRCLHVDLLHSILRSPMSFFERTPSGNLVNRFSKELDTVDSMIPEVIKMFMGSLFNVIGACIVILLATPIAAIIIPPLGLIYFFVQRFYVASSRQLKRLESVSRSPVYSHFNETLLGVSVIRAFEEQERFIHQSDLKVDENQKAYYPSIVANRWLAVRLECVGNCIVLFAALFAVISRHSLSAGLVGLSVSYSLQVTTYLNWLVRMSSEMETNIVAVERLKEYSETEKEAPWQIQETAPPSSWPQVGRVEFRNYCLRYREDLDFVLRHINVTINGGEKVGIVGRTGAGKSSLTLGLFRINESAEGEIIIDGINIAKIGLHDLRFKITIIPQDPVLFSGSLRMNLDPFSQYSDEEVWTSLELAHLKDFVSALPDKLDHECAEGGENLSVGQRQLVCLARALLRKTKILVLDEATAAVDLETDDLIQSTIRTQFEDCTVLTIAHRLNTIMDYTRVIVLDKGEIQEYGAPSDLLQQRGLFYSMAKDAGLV
# [4] = biological target: T1, ABCG2; test: Hoechst 33342 assay (plate reader), MDCK II BCRP cells
# Procedure: The fluorescence accumulation at an excitation wavelength of 360 nm and an emission wavelength of 460 nm was measured over a period of 120 min in 60 s intervals using a Paradigm microplate reader [Beckman Coulter (Brea, CA, USA)]. The average steady-state fluorescence value was calculated for each well and correlated to the used compound concentration.
# [5] = biological target: T3, ABCC1; test: Daunorubicin accumulation assay (flow cytometry), H69AR cells
# [6] = biological target: T2, ABCB1; test: Daunorubicin accumulation assay (flow cytometry), A2780/ADR cells
Structure (SMILES),IC50 [1],IC50 [2],IC50±SEM ABCC1 Calcein AM [3],mode of modulation of ABCC1 (in words) [3],IC50 [4],IC50 [3],IC50 [5],IC50 [6]
Cc1ccccc1Cn1c(N2CCN(CCc3ccccc3)CC2)nc2c1c(=O)[nH]c(=O)n2C [Compound 1],7.89 ± 0.44 µM,22.7 ± 5.4 µM,n.i.,apparent slight activation of ABCC1,–,–,–,–
O=C(C1c2ccccc2Oc2ccccc21)N1CCN(Cc2nnnn2-c2ccc(F)cc2)CC1 [Compound 4],15.1 ± 1.2 µM,15.5 ± 1.3 µM,n.i.,–,–,–,–,–
Cc1onc(-c2ccccc2Cl)c1C(=O)N1CCN(Cc2nnnn2-c2ccc(F)cc2)CC1 [Compound 3],15.9 ± 1.1 µM,–,–,–,37.9 ± 12.5 µM,38.6 ± 2.2 µM,38.7 ± 15.2 µM,–
Cn1c(=O)n(C)c2cc(S(=O)(=O)N3CCN(C(c4ccccc4)c4ccccc4)CC3)ccc21 [Compound 2],25.8 ± 12.1 µM,8.26 ± 0.54 µM,n.i.,apparent slight activation of ABCC1,–,–,–,–
COc1ccc(OCc2noc(CN3CCN(C(=O)C45CC6CC(CC(C6)C4)C5)CC3)n2)cc1 [Compound 5],12.4 ± 1.3 µM,25.6 ± 1.1 µM,–,–,28.5 ± 6.1 µM,60.9 ± 14 µM,57 ± 6.5 µM,80.2 ± 30.1 µM
